Molecular target: hMC2 receptor (Homo sapiens, UniProt Q01718)
Assay: hMC2 membrane binding assay ([125I]ACTH (1-39) Tyr23, SPA)
Design: scale not given here
Conditions: crude hMC2R membranes from CRE-bla-CHO-K1 cells expressing hMC2 receptor and hMRAP; [125I]ACTH (1-39) Tyr23 0.2 nM; 1.5 hours at room temperature; read-out: MC2R binding potency
Summary of the method: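 CRE-bla-CHO-K1 membranes co-expressing hMC2 receptor and hMRAP, preincubated with WGA PVT SPA beads in pH 7.4 HEPES/MgCl2/CaCl2/0.2% BSA buffer. Compounds (typically 0–10,000 nM final) compete with 0.2 nM [125I]ACTH(1-39) Tyr23 for 1.5 h at room temperature. SPA counts give Ki by non-linear regression.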

Sequence of hMC2 receptor (Q01718 whole entry): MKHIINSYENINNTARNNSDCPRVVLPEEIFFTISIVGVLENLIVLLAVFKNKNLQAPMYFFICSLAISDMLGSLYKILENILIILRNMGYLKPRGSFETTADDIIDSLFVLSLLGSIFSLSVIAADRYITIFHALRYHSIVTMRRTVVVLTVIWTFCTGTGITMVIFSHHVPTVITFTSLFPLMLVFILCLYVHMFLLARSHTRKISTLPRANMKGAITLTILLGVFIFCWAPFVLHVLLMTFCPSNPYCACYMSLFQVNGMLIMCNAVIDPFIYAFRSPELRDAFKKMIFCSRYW
Sequence of hMC2 receptor (Q8TCY5 whole entry partner): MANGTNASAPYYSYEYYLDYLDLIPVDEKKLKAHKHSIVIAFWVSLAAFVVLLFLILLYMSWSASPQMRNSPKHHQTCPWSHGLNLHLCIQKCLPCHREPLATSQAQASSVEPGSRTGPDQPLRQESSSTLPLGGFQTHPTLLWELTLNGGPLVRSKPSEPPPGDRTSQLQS

| SMILES | Ki [nM] |
| --- | --- |
| CCOc1ncccc1-c1ccc(N2CCN(C(=O)c3ccc(OC)cc3C(F)(F)F)C[C@H]2CC)c(C(=O)N[C@@H]2CCNC2)c1 [Compound 1-143, 5-(2-ethoxypyridin-3-yl)-2-[(2R)-2-ethyl-4-[4-methoxy-2-(trifluoromethyl)benzoyl]piperazin-1-yl]-N-[(3R)-pyrrolidin-3-yl]benzamide] | < 10 |
| CCOc1ncccc1-c1ccc(N2CCN(C(=O)c3ccc(F)cc3N3CC(N)C3)C[C@H]2CC)c(C(=O)NCCN(C)C)c1 [Compound 1-148, 2-[(2R)-4-[2-(3-aminoazetidin-1-yl)-4-fluorobenzoyl]-2-ethylpiperazin-1-yl]-N-[2-(dimethylamino)ethyl]-5-(2-ethoxypyridin-3-yl)benzamide] | < 10 |
| CCOc1ccccc1-c1ccc(N2CCN(C(=O)c3ccc(Cl)cc3C(F)(F)F)C[C@H]2CC)c(C(=O)NCCN(C)C)n1 [Compound 1-149, 3-[(2R)-4-[4-chloro-2-(trifluoromethyl)benzoyl]-2-ethylpiperazin-1-yl]-N-[2-(dimethylamino)ethyl]-6-(2-ethoxyphenyl)pyridine-2-carboxamide] | < 10 |
| CCOc1ncccc1-c1ccc(N2CCN(C(=O)c3ccc(Cl)cc3C(F)(F)F)C[C@H]2CC)c(C(=O)NCCN(C)C)n1 [Compound 1-150, 5-[(2R)-4-[4-chloro-2-(trifluoromethyl)benzoyl]-2-ethylpiperazin-1-yl]-N-[2-(dimethylamino)ethyl]-2′-ethoxy-[2,3′-bipyridine]-6-carboxamide Acetate] | < 10 |
| CCOc1ncccc1-c1ccc(N2CCN(C(=O)c3ccc(Cl)cc3C(F)(F)F)C[C@H]2CC)c(C(=O)N[C@@H]2CCNC2)n1 [Compound 1-151, 5-[(2R)-4-[4-chloro-2-(trifluoromethyl)benzoyl]-2-ethylpiperazin-1-yl]-2′-ethoxy-N-[(3R)-pyrrolidin-3-yl]-[2,3′-bipyridine]-6-carboxamide] | < 10 |
| CCOc1ncccc1-c1ccc(N2CCN(C(=O)c3ccc(Cl)cc3C(F)(F)F)C[C@H]2CC)c(C(=O)N[C@@H]2CCN(C)C2)n1 [Compound 1-152, 5-[(2R)-4-[4-chloro-2-(trifluoromethyl)benzoyl]-2-ethylpiperazin-1-yl]-2′-ethoxy-N-[(3R)-1-methylpyrrolidin-3-yl]-[2,3′-bipyridine]-6-carboxamide] | < 10 |
| CCOc1ncccc1-c1ccc(N2CCN(C(=O)c3ccc(OC)cc3C(F)(F)F)C[C@H]2CC)c(C(=O)NCCNC)c1F [Compound 1-155, 3-(2-ethoxypyridin-3-yl)-6-[(2R)-2-ethyl-4-[4-methoxy-2-(trifluoromethyl)benzoyl]piperazin-1-yl]-2-fluoro-N-[2-(methylamino)ethyl]benzamide] | < 10 |
| CCOc1ncccc1-c1ccc(N2CCN(C(=O)c3ccc(Cl)cc3Cl)C[C@H]2CC)c(C(=O)NCCNC)c1F [Compound 1-156, 6-[(2R)-4-(2,4-dichlorobenzoyl)-2-ethylpiperazin-1-yl]-3-(2-ethoxypyridin-3-yl)-2-fluoro-N-[2-(methylamino)ethyl]benzamide] | < 10 |
| CCOc1ncccc1-c1ccc(N2CCN(C(=O)c3ccc(NC)nc3C(F)(F)F)C[C@H]2CC)c(C(=O)NCCNC)c1F [Compound 1-163, 3-(2-ethoxypyridin-3-yl)-6-[(2R)-2-ethyl-4-[6-(methylamino)-2-(trifluoromethyl)pyridine-3-carbonyl]piperazin-1-yl]-2-fluoro-N-[2-(methylamino)ethyl]benzamide] | < 10 |
| CCOc1ncccc1-c1ccc(N2CCN(C(=O)c3ccc(OC)nc3C(F)(F)F)C[C@H]2CC)c(C(=O)NCCNC)c1F [Compound 1-164, 3-(2-ethoxypyridin-3-yl)-6-[(2R)-2-ethyl-4-[6-methoxy-2-(trifluoromethyl)pyridine-3-carbonyl]piperazin-1-yl]-2-fluoro-N-[2-(methylamino)ethyl]benzamide] | < 10 |
| CCOc1ccc(C(=O)N2CCN(c3ccc(-c4cccnc4OCC)c(F)c3C(=O)NCCNC)[C@H](CC)C2)c(C(F)(F)F)n1 [Compound 1-165, 6-[(2R)-4-[6-ethoxy-2-(trifluoromethyl)pyridine-3-carbonyl]-2-ethylpiperazin-1-yl]-3-(2-ethoxypyridin-3-yl)-2-fluoro-N-[2-(methylamino)ethyl]benzamide] | < 10 |
| CCOc1ncccc1-c1ccc(N2CCN(C(=O)c3ccc(OC)cc3C(F)(F)F)C[C@H]2CC)c(C(=O)NCCNC)n1 [Compound 1-167, 2′-ethoxy-5-[(2R)-2-ethyl-4-[4-methoxy-2-(trifluoromethyl)benzoyl]piperazin-1-yl]-N-[2-(methylamino)ethyl]-[2,3′-bipyridine]-6-carboxamide] | < 10 |
| CCOc1ncccc1-c1ccc(N2CCN(C(=O)c3ccc(OC)cc3C(F)(F)F)C[C@H]2CC)c(C(=O)NCCN(C)C)c1F [Compound 1-168, N-[2-(dimethylamino)ethyl]-3-(2-ethoxypyridin-3-yl)-6-[(2R)-2-ethyl-4-[4-methoxy-2-(trifluoromethyl)benzoyl]piperazin-1-yl]-2-fluorobenzamide] | < 10 |
| CCOc1ncccc1-c1ccc(N2CCN(C(=O)c3ccc(OC)cc3C(F)(F)F)C[C@H]2CC)c(C(=O)NCCN(C)C)n1 [Compound 1-169, N-[2-(dimethylamino)ethyl]-2′-ethoxy-5-[(2R)-2-ethyl-4-[4-methoxy-2-(trifluoromethyl)benzoyl]piperazin-1-yl]-[2,3′-bipyridine]-6-carboxamide] | < 10 |
| CCOc1ncccc1-c1ccc(N2CCN(C(=O)c3ccc(OC)cc3C(F)(F)F)C[C@H]2CC)c(C(=O)NCC2=NCCN2)c1F [Compound 1-170, N-[(4,5-dihydro-1H-imidazol-2-yl)methyl]-3-(2-ethoxypyridin-3-yl)-6-[(2R)-2-ethyl-4-[4-methoxy-2-(trifluoromethyl)benzoyl]piperazin-1-yl]-2-fluorobenzamide] | < 10 |
| CCOc1ncccc1-c1ccc(N2CCN(C(=O)c3ccc(Cl)cc3C#N)C[C@H]2CC)c(C(=O)NCCNC)n1 [Compound 1-171, 5-[(2R)-4-(4-chloro-2-cyanobenzoyl)-2-ethylpiperazin-1-yl]-2′-ethoxy-N-[2-(methylamino)ethyl]-[2,3′-bipyridine]-6-carboxamide] | < 10 |
| CCOc1ncccc1-c1ccc(N2CCN(C(=O)c3ccc(Cl)cc3C(F)(F)F)C[C@H]2CC)c(C(=O)NCCN(C)C)c1F [Compound 1-173, 6-[(2R)-4-[4-chloro-2-(trifluoromethyl)benzoyl]-2-ethylpiperazin-1-yl]-N-[2-(dimethylamino)ethyl]-3-(2-ethoxypyridin-3-yl)-2-fluorobenzamide] | < 10 |
| CCOc1ncccc1-c1ccc(N2CCN(C(=O)c3ccc(F)cc3C(F)(F)F)C[C@H]2CC)c(C(=O)NCCN(C)C)c1F [Compound 1-174, N-[2-(dimethylamino)ethyl]-3-(2-ethoxypyridin-3-yl)-6-[(2R)-2-ethyl-4-[4-fluoro-2-(trifluoromethyl)benzoyl]piperazin-1-yl]-2-fluorobenzamide] | < 10 |
| CCOc1ncccc1-c1ccc(N2CCN(C(=O)c3ccc(F)cc3C(F)F)C[C@H]2CC)c(C(=O)NCCN(C)C)c1F [Compound 1-176, 6-[(2R)-4-[2-(difluoromethyl)-4-fluorobenzoyl]-2-ethylpiperazin-1-yl]-N-[2-(dimethylamino)ethyl]-3-(2-ethoxypyridin-3-yl)-2-fluorobenzamide] | < 10 |
| CCOc1ncccc1-c1ccc(N2CCN(C(=O)c3ccc(F)cc3C(F)F)C[C@H]2CC)c(C(=O)NCCNC)c1F [Compound 1-177, 6-[(2R)-4-[2-(difluoromethyl)-4-fluorobenzoyl]-2-ethylpiperazin-1-yl]-3-(2-ethoxypyridin-3-yl)-2-fluoro-N-[2-(methylamino)ethyl]benzamide] | < 10 |
| CCOc1ncccc1-c1ccc(N2CCN(C(=O)c3ccc(Cl)cc3Cl)C[C@H]2CC)c(C(=O)NCC2=NCCN2)c1F [Compound 1-178, 6-[(2R)-4-(2,4-dichlorobenzoyl)-2-ethylpiperazin-1-yl]-N-[(4,5-dihydro-1H-imidazol-2-yl)methyl]-3-(2-ethoxypyridin-3-yl)-2-fluorobenzamide] | < 10 |
| CCOc1ccc(C(=O)N2CCN(c3ccc(-c4cccnc4OCC)nc3C(=O)NCCNC)[C@H](CC)C2)c(C(F)(F)F)n1 [Compound 1-181, 2′-ethoxy-5-[(2R)-4-[6-ethoxy-2-(trifluoromethyl)pyridine-3-carbonyl]-2-ethylpiperazin-1-yl]-N-[2-(methylamino)ethyl]-[2,3′-bipyridine]-6-carboxamide] | < 10 |
| CCOc1ncccc1-c1ccc(N2CCN(C(=O)c3ccc(F)cc3C(F)(F)F)C[C@H]2CC)c(C(=O)NCC2=NCCN2)c1F [Compound 1-182, N-[(4,5-dihydro-1H-imidazol-2-yl)methyl]-3-(2-ethoxypyridin-3-yl)-6-[(2R)-2-ethyl-4-[4-fluoro-2-(trifluoromethyl)benzoyl]piperazin-1-yl]-2-fluorobenzamide] | < 10 |
| CCOc1ncccc1-c1ccc(N2CCN(C(=O)c3ccc(Cl)cc3C(F)F)C[C@H]2CC)c(C(=O)NCCNC)c1F [Compound 1-183, 6-[(2R)-4-[4-chloro-2-(difluoromethyl)benzoyl]-2-ethylpiperazin-1-yl]-3-(2-ethoxypyridin-3-yl)-2-fluoro-N-[2-(methylamino)ethyl]benzamide] | < 10 |
| CCOc1ncccc1-c1ccc(N2CCN(C(=O)c3ccc(Cl)cc3C(F)F)C[C@H]2CC)c(C(=O)NCCN(C)C)c1F [Compound 1-184, 6-[(2R)-4-[4-chloro-2-(difluoromethyl)benzoyl]-2-ethylpiperazin-1-yl]-N-[2-(dimethylamino)ethyl]-3-(2-ethoxypyridin-3-yl)-2-fluorobenzamide] | < 10 |

From patent publication US10981894B2, “Melanocortin subtype-2 receptor (MC2R) antagonists and uses thereof” (Crinetics Pharmaceuticals, Inc., priority 2018, dated 2021)
